{"source": "patent US20070016983A1", "about": "“Controlling gene expressions in plastids” (Icon Genetics AG, priority 2003, published 2007)", "tested_on": "lac repressor/operator system controlling plastome-encoded smGFP", "test": "Chemical induction of plastid GFP transgene expression by spraying a transplastomic tobacco plant with IPTG (Western blot)", "type": "in vivo, Nicotiana tabacum", "procedure": "FIG. 2: Immunological detection of GFP expression after induction with IPTG. • A) Plastid transformant 557-1 containing the smGFP gene under the control of the 16S-lac3 promoter and the lacl gene (transformation vector plCF1050-1), was analyzed for its GFP content by Western blotting. For the uninduced sample (−), a young leaf of a ca. 7 cm high plant was removed before spraying the plant with a 1 mM IPTG solution. For the induced sample (+), the next youngest leaf was cut four days after spraying. The amount of total soluble protein loaded on the gel is given on the top of the lanes. • B) Lower amounts of protein of the induced sample shown in A were loaded on the gel in order to allow quantification in comparison with the uninduced sample. In addition, protein from further leaves that were cut seven days after spraying was loaded. Leaf a was the next youngest leaf, leaf b an older leaf. Compared with a GFP standard, the amount of GFP in the first lane is in the range of 15 to 20 ng.\nTobacco seeds (Nicotiana tabacum cv. petite havana) were surface sterilized (1 min in 70% ethanol, 10 min in 5% Dimanin C, Bayer, Leverkusenr, Germany), washed 3 times for 10 min in sterile H2O and put on SCN-medium (Dovzhenko et al., 1998). Plants were grown at 25° C. in a 16 h light/8 h dark cycle (0.5-1 W/m^2 Osram L85W/25 Universal-White fluorescent lamps). Protoplast isolation was made according to Dovzhenko et al. (1998). Transformation using polyethyleneglycol (PEG) was performed as described in Koop et al. (1996), and alginate embedding according to Dovzhenko et al. (1998). After one week of culture in liquid medium, cells were transferred to agar-solidified RMOP-medium (Svab et al., 1990) containing 25 μg/ml kanamycin to select for transformants. Green regenerates were retrieved after […] and transferred to individual plates. In order to achieve homoplastomy, the individual lines were subjected to repeated cycles of shoot generation by cutting small leaf pieces which form new regenerates on RMOP-medium with 15 μg/ml kanamycin. Rooting of selected regenerates was done on SCN-medium containing 15 μg/ml spectinomycin. […]\nA transplastomic plant generated with plCF10501 was grown on SCN-medium to a height of ca. 7 cm. […] After four and seven days, respectively, the next youngest leaf was cut off and also analyzed. […] Protein quantification was made according to the Bradford method with RotiQuant solution. Proteins were separated on a 15% polyacrylamide gel and transferred to nitrocellulose membrane, and GFP was detected immunologically using the ECL method (primary antibody directed against a recombinant protein corresponding to GFP from A. victoria; Santa Cruz Biotechnology).", "data": [{"molecule": "CC(C)S[C@@H]1O[C@H](CO)[C@H](O)[C@H](O)[C@H]1O", "note": "[IPTG, isopropyl-D-thiogalactopyranoside]", "values": [{"measurement": "amount of GFP in the first lane compared with a GFP standard", "setting": "FIG. 2B, first lane, Western blot of plastid transformant 557-1 sprayed with 1 mM IPTG", "result": "15 to 20", "unit": "ng"}, {"measurement": "green fluorescence of leaves", "setting": "after spraying with 1 mM IPTG, leaves irradiated with ultraviolet/blue light", "result": "increase in green fluorescence"}, {"measurement": "amount of GFP in the leaves", "setting": "plant sprayed with ca. 1 ml of 1 mM IPTG, leaf cut seven days after spraying, Western blot, FIG. 2", "result": "a further increase could be observed"}, {"measurement": "increase of the amount of GFP in the leaves", "setting": "plant sprayed with ca. 1 ml of 1 mM IPTG, next youngest leaf cut four days after spraying vs leaf cut before spraying, Western blot, FIG. 2", "result": "about 10 fold"}]}]}
